How the values were obtained:
LucPpy = molecular target: T1, LucPpy (Photinus pyralis, UniProt P08659); experiment: Stability of reagent composition with LucPpy and detergent (RT, pH 7.0); format: biochemical; conditions: LucPpy
T1 construct: purchased Promega E170A
Description: (§1) The detergents used for inhibition of endogenous ATPase activity in a sample also affect activity of luciferase. […] It is ultimately the extended stability of a reagent composition, comprising an ATPase inhibitor and a luciferase enzyme, which provides a composition useful for measuring ATP, in a sample or samples, over an extended period of time.
(§2) In this experiment, the stability of a reagent composition comprising wild type LucPpy was compared to the stability of a reagent composition comprising LucPpe2m146 at about 23° C. (room temperature). The various reagent compositions had varying detergent concentrations.
(§3) Two solutions were created as listed below. One contained the luciferase, luciferin, MgSO4, and buffer (reagent composition). The other solution contained media plus ATP (media solution).
(§4) 50 μg/ml enzyme (LucPpy is Promega catalog #E170A)
(§5) Detergent (at various concentrations, see table below)
(§6) For each reagent composition, all ingredients except the luciferase enzyme were assembled; the enzyme was then added immediately before the first luminescence reading was taken. Immediately after addition of enzyme to each reagent composition and for various timepoints thereafter, 100 μl aliquots of the reagent composition were added to wells of a 96-well microtitre luminometer plate in triplicate. To these were added 100 μl Media Solution containing the ATP. Luminescence was then immediately read on a Dynex MLX microtitreplate luminometer, 0.5 second reads per well. The average relative light unit values as well as the reaction half lives are listed below in Table I and the percent of original luminescence remaining at each timepoint is listed in Table J below. The timepoint at the top of the column indicates the time at which the first rlu measurement for the samples in that column was read. […] Times listed in Table I are the same for Table J. The values for sulfobetaine and for CTAB were generated on different days, they are presented with the control values generated in the same experiment.

LucPpe2m146 = experiment: Stability of reagent composition with LucPpe2m146 and detergent (RT, pH 7.0); format: biochemical, Photuris pennsylvanica
Description: as §1, §2, §3, §4, §5, §6

CCCCCCCCCCCCCCCC[N+](C)(C)C.[Br-] [CTAB, Cetyltrimethylammonium bromide]
Average Relative Light Units (LucPpy; 0.02%, 0.75 min (head r25)): 1869.80 rlu | Percent of Luminescence Remaining (LucPpy; 0.02%, 0.75 min (times of Table I r25)): 100.00% | Average Relative Light Units (LucPpy; 0.02%, 6 min (head r25)): 79.719 rlu | Percent of Luminescence Remaining (LucPpy; 0.02%, 6 min (times of Table I r25)): 0.09% | Percent of Luminescence Remaining (LucPpy; 0.02%, 16 min (times of Table I r25, r31)): 0.03% | Average Relative Light Units (LucPpy; 0.02%, (16 min) (head r25)): 0.099 rlu | Average Relative Light Units (LucPpy; 0.05%, 0.75 min (head r25)): 1134.53 rlu | Percent of Luminescence Remaining (LucPpy; 0.05%, 0.75 min (times of Table I r25)): 100.00% | Average Relative Light Units (LucPpy; 0.05%, 6 min (head r25)): 0.563 rlu | Percent of Luminescence Remaining (LucPpy; 0.05%, 6 min (times of Table I r25)): 0.05% | Average Relative Light Units (LucPpy; 0.05%, 20 min (head r25)): 0.015 rlu | Percent of Luminescence Remaining (LucPpy; 0.05%, 20 min (times of Table I r25)): 0.00% | Average Relative Light Units (LucPpy; 0.1%, 0.75 min (head r25)): 94.603 rlu | Percent of Luminescence Remaining (LucPpy; 0.1%, 0.75 min (times of Table I r25)): 100.00% | Average Relative Light Units (LucPpy; 0.1%, 6 min (head r25)): 0.020 rlu | Percent of Luminescence Remaining (LucPpy; 0.1%, 6 min (times of Table I r25)): 0.02% | Average Relative Light Units (LucPpe2m146; LucPpe2m146, 0.02%, 1.0 min (head r61)): 11019.8 rlu | Percent of Luminescence Remaining (LucPpe2m146; LucPpe2m146, 0.02%, 1.0 min (times of Table I r61)): 100.00% | Average Relative Light Units (LucPpe2m146; LucPpe2m146, 0.02%, 37 min (head r61)): 2051.7 rlu | Percent of Luminescence Remaining (LucPpe2m146; LucPpe2m146, 0.02%, 37 min (times of Table I r61)): 18.62% | Average Relative Light Units (LucPpe2m146; LucPpe2m146, 0.02%, 67 min (head r61)): 1087.4 rlu | Percent of Luminescence Remaining (LucPpe2m146; LucPpe2m146, 0.02%, 67 min (times of Table I r61)): 9.87% | Average Relative Light Units (LucPpe2m146; LucPpe2m146, 0.02%, 116 min (head r61)): 6117.8 rlu | Percent of Luminescence Remaining (LucPpe2m146; LucPpe2m146, 0.02%, 116 min (times of Table I r61)): 55.52% | Average Relative Light Units (LucPpe2m146; LucPpe2m146, 0.02%, 177 min (head r61)): 16020.8 rlu | Percent of Luminescence Remaining (LucPpe2m146; LucPpe2m146, 0.02%, 177 min (times of Table I r61)): 145.38% | Average Relative Light Units (LucPpe2m146; LucPpe2m146, 0.02%, 243 min (head r61)): 16368.5 rlu | Percent of Luminescence Remaining (LucPpe2m146; LucPpe2m146, 0.02%, 243 min (times of Table I r61)): 148.54% | Average Relative Light Units (LucPpe2m146; LucPpe2m146, 0.05%, 1.0 min (head r61)): 11992.5 rlu | Percent of Luminescence Remaining (LucPpe2m146; LucPpe2m146, 0.05%, 1.0 min (times of Table I r61)): 100.00% | Average Relative Light Units (LucPpe2m146; LucPpe2m146, 0.05%, 37 min (head r61)): 301.5 rlu | Percent of Luminescence Remaining (LucPpe2m146; LucPpe2m146, 0.05%, 37 min (times of Table I r61)): 2.51% | Average Relative Light Units (LucPpe2m146; LucPpe2m146, 0.05%, 67 min (head r61)): 131.7 rlu | Percent of Luminescence Remaining (LucPpe2m146; LucPpe2m146, 0.05%, 67 min (times of Table I r61)): 1.10% | Average Relative Light Units (LucPpe2m146; LucPpe2m146, 0.05%, 116 min (head r61)): 4219.7 rlu | Percent of Luminescence Remaining (LucPpe2m146; LucPpe2m146, 0.05%, 116 min (times of Table I r61)): 35.19% | Average Relative Light Units (LucPpe2m146; LucPpe2m146, 0.05%, 177 min (head r61)): 16910.8 rlu | Percent of Luminescence Remaining (LucPpe2m146; LucPpe2m146, 0.05%, 177 min (times of Table I r61)): 141.01% | Average Relative Light Units (LucPpe2m146; LucPpe2m146, 0.05%, 243 min (head r61)): 17340.0 rlu | Percent of Luminescence Remaining (LucPpe2m146; LucPpe2m146, 0.05%, 243 min (times of Table I r61)): 144.5% | Average Relative Light Units (LucPpe2m146; LucPpe2m146, 0.1%, 1.0 min (head r61)): 1047.8 rlu | Percent of Luminescence Remaining (LucPpe2m146; LucPpe2m146, 0.1%, 1.0 min (times of Table I r61)): 100.00% | Average Relative Light Units (LucPpe2m146; LucPpe2m146, 0.1%, 37 min (head r61)): 5.3 rlu | Percent of Luminescence Remaining (LucPpe2m146; LucPpe2m146, 0.1%, 37 min (times of Table I r61)): 0.51% | Average Relative Light Units (LucPpe2m146; LucPpe2m146, 0.1%, 67 min (head r61)): 5.2 rlu | Percent of Luminescence Remaining (LucPpe2m146; LucPpe2m146, 0.1%, 67 min (times of Table I r61)): 0.50% | Average Relative Light Units (LucPpe2m146; LucPpe2m146, 0.1%, 116 min (head r61)): 6.2 rlu | Percent of Luminescence Remaining (LucPpe2m146; LucPpe2m146, 0.1%, 116 min (times of Table I r61)): 0.59% | Average Relative Light Units (LucPpe2m146; LucPpe2m146, 0.1%, 177 min (head r61)): 6.0 rlu | Percent of Luminescence Remaining (LucPpe2m146; LucPpe2m146, 0.1%, 177 min (times of Table I r61)): 0.58% | Average Relative Light Units (LucPpe2m146; LucPpe2m146, 0.1%, 243 min (head r61)): 5.7 rlu | Percent of Luminescence Remaining (LucPpe2m146; LucPpe2m146, 0.1%, 243 min (times of Table I r61)): 0.55%
